For test [1], the target named is T1, D3 dopamine receptor (Homo sapiens, UniProt P35462). In words: β-arrestin binding assay (DiscoverX PathHunter, DRD3-U2OS cells). The class given is cell-based. Also on record: host or cells: U2OS (PathHunter eXpress DRD3-U2OS). As to conditions: human D3, test compound at 10x Ki, normalized to quinpirole. As for the experimental part: Quinpirole was used as a reference prototypic full agonist and haloperidol was used as a reference prototypic antagonist.
The β-arrestin binding assay was performed using a DiscoverX Pathhunter® kit according to the manufacturer’s instructions. PathHunter® eXpress β-Arrestin GPCR cells are engineered to co-express the ProLink™ (PK) tagged GPCR and the Enzyme Acceptor (EA) tagged β-Arrestin. Activation of the GPCR-PK induces β-Arrestin-EA recruitment, forcing complementation of the two β-galactosidase enzyme fragments (EA and PK). The resulting functional enzyme hydrolyzes substrate to generate a chemiluminescent signal. DRD3-U2OS cells were seeded according to kit instructions into white plastic 96-well plates (provided with the kit) 48 h prior to the assay in a volume of 100 μL/well using the Cell Plating Reagent (CPR) provided. Vehicle or test drug, diluted in CPR, was added to the designated wells and incubated for 90 min at 37 °C. Working detection solution (a component provided with the kit) was added to the wells and incubated for 1 h in the dark at room temperature. As discussed for the cyclase assay, an Enspire Alpha 2390 Multilabel Reader/Luminometer was used to detect the luminescent signal with haloperidol and quinpirole used as reference antagonist and full agonist, respectively.
Figure 3 Comparison of the Efficacy of Phenylthiophene Analogs for Adenylyl Cyclase Inhibition and β-Arrestin Binding at Human D3 Dopamine Receptors. […] Values were normalized to reference full agonist quinpirole (10,000 nM).

Test [2] has as its system unilateral 6-hydroxydopamine lesioned (hemiparkinsonian) rats. As to the kind of experiment: L-dopa-dependent abnormal involuntary movement (AIM) inhibition in hemiparkinsonian rats. Type of test: in vivo, rat. As to conditions: unilaterally lesioned male rats, 10 mg/kg, L-dopa and benserazide 8 mg/kg each. The protocol:
First, we have previously published that D3 receptor selective compounds could attenuate a hallucinogen-dependent head twitch response (HTR) in male DBA/2J mice. […] Second, we previously reported that D3 vs. D2 dopamine receptor subtype selective ligands could attenuate L-dopa dependent abnormal involuntary movement (AIM) scores in unilaterally lesioned (hemiparkinsonian) male rats, which is a model for L-dopa-Induced Dyskinesia (LID). […]
AIMs ratings were performed as previously described. The severity of the AIMs was quantified using lesioned rats that were observed individually in their home cages at 15 min intervals, starting 15 min after the injection of L-dopa for approximately 2 h. The AIMs were scored in four categories: (1) axial AIMs, including dystonic or choreiform torsion of the trunk and neck towards the side contralateral to the lesion; (2) limb AIMs, including jerky and/or dystonic movements of the forelimb contralateral to the lesion; (3) orolingual AIMs, including twitching of orofacial muscles with empty masticatory movements and protrusion of the tongue towards the side contralateral to the lesion and (4) locomotive AIMs, including increased locomotion with contralateral side bias. […]
The effect of Group was assessed using two-way analysis of variance (ANOVA) with time as the repeated measure. […]

A further test deals with D4 dopamine receptor (Homo sapiens, UniProt P21917). In words: PDSP off-target binding. As to conditions: read-out: binding affinity D4 (PDSP). An excerpt: (§1) Further evaluation of the off-target binding of compound 6a was provided by the Psychoactive Drug Screening Program (PDSP) for a range of receptors including serotonin receptor subtypes, α-adrenergic receptor subtypes, β-adrenergic receptor subtypes, histaminergic receptor subtypes, muscarinic receptor subtypes, opioid receptor subtypes and the two sigma receptor subtypes.

For test [3], the target named is T1, D3 dopamine receptor. In words: PDSP off-target binding. The conditions noted are these: read-out: binding affinity D3 (PDSP).
From the text: as §1

The target of the next test is α2b adrenergic receptor (Homo sapiens, UniProt P18089). In words: PDSP off-target binding. As to conditions: read-out: binding affinity α2b (PDSP).
From the text: as §1

Another test has as its target α2a adrenergic receptor (Homo sapiens, UniProt P08913). In words: PDSP off-target binding. The conditions noted are these: read-out: binding affinity α2a (PDSP).
From the text: as §1

The target in the next test is sigma-2 receptor (Homo sapiens, UniProt Q5BJF2). In words: PDSP off-target binding. The conditions noted are these: read-out: binding affinity sigma-2 (PDSP).
From the text: as §1

The target in the next test is α1b adrenergic receptor (Homo sapiens, UniProt P35368). As to the kind of experiment: PDSP off-target binding. The conditions noted are these: read-out: binding affinity α1b (PDSP).
From the text: as §1

A further test has as its target D5 dopamine receptor (Homo sapiens, UniProt P21918). As to the kind of experiment: PDSP off-target binding. As to conditions: in words.
From the text: as §1

For test [4], the target named is serotonin transporter (SERT) (Homo sapiens, UniProt P31645). In words: PDSP off-target binding. As to conditions: read-out: binding affinity SERT (PDSP).
From the text: as §1

The target of a further test is D1 dopamine receptor (Homo sapiens, UniProt P21728). In words: PDSP off-target binding. As to conditions: in words.
From the text: as §1

In a further test the target is 5-HT7A receptor (Homo sapiens, UniProt P34969). In words: PDSP off-target binding. As to conditions: read-out: binding affinity 5-HT7A (PDSP).
From the text: as §1

Results on one molecule are retold here after publication PMC8198181, “Evaluation of Substituted N-Phenylpiperazine Analogs as D3 vs. D2 Dopamine Receptor Subtype Selective Ligands” (Molecules, 2021).

Each structure is given as a SMILES string.

T1 sequence (P35462 whole entry, the tested form may be a part): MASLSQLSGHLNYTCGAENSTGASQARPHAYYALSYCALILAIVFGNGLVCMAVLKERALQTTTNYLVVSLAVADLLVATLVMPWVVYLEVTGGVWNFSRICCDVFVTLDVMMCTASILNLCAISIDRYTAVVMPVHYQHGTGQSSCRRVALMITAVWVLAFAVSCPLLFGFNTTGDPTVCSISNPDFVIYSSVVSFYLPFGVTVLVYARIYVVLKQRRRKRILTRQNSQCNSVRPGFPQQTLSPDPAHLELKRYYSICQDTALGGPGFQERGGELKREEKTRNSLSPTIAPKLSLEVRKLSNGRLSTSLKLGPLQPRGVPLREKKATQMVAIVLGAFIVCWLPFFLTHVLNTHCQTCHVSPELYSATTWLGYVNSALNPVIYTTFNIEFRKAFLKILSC
Sequence of α2a adrenergic receptor (P08913 whole entry): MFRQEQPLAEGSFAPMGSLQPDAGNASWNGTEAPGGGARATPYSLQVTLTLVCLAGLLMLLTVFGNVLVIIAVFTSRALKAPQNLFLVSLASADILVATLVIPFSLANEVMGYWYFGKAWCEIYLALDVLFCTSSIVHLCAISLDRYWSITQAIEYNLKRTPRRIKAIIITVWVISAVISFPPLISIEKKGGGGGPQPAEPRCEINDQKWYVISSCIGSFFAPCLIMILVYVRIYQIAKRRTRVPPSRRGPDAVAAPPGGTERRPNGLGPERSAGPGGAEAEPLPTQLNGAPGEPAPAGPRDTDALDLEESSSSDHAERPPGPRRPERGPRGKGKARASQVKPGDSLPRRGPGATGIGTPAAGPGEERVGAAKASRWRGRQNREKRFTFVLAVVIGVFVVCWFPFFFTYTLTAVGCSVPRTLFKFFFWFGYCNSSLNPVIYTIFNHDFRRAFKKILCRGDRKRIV
Sequence of α1b adrenergic receptor (P35368 whole entry): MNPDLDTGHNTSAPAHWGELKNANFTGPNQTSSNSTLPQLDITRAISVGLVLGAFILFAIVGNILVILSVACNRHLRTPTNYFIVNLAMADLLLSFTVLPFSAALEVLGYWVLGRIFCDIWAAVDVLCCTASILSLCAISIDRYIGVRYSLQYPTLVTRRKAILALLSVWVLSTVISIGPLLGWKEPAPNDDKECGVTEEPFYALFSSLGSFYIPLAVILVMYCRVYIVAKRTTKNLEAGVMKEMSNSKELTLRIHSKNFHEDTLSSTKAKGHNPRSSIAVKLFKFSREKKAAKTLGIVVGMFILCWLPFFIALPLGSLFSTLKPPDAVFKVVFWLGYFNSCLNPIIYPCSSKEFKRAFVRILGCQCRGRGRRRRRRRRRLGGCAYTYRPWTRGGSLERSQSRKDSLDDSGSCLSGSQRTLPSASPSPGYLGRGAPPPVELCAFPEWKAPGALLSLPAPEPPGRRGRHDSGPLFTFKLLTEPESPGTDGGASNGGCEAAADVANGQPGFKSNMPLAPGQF
Sequence of 5-HT7A receptor (P34969 1-445 isoform P34969-2): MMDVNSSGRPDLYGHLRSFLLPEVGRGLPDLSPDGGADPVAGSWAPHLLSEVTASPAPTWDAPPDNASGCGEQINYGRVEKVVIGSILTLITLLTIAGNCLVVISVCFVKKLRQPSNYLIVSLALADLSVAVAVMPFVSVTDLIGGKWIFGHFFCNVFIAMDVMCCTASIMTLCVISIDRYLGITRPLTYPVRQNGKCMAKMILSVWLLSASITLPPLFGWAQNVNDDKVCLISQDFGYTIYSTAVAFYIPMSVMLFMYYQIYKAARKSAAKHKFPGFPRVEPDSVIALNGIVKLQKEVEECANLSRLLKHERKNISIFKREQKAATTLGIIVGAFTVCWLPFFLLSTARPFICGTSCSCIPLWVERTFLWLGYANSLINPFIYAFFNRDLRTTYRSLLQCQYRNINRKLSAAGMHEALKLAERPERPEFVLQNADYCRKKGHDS
Sequence of D1 dopamine receptor (P21728 whole entry): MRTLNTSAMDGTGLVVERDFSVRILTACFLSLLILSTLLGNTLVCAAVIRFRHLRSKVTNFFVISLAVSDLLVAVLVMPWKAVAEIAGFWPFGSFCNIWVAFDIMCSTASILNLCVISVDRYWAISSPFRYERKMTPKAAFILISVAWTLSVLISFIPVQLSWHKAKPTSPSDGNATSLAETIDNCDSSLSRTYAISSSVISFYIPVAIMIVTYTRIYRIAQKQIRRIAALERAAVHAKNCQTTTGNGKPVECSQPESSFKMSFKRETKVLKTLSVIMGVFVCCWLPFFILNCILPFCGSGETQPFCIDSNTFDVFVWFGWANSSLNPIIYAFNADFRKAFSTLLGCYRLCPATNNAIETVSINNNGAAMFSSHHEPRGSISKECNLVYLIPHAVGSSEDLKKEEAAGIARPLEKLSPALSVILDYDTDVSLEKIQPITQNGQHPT
Sequence of D5 dopamine receptor (P21918 whole entry): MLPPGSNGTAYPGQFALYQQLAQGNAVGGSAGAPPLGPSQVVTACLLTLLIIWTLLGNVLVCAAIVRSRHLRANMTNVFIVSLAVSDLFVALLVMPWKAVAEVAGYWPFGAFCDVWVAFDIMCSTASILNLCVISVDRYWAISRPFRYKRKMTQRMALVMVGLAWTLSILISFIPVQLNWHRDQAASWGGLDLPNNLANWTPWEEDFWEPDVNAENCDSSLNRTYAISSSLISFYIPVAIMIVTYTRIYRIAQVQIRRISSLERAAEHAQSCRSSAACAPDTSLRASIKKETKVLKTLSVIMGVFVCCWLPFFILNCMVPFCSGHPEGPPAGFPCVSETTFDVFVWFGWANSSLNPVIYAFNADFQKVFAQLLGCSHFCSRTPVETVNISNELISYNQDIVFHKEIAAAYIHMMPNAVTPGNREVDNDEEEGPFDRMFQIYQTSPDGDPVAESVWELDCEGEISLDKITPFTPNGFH
Sequence of α2b adrenergic receptor (P18089 whole entry): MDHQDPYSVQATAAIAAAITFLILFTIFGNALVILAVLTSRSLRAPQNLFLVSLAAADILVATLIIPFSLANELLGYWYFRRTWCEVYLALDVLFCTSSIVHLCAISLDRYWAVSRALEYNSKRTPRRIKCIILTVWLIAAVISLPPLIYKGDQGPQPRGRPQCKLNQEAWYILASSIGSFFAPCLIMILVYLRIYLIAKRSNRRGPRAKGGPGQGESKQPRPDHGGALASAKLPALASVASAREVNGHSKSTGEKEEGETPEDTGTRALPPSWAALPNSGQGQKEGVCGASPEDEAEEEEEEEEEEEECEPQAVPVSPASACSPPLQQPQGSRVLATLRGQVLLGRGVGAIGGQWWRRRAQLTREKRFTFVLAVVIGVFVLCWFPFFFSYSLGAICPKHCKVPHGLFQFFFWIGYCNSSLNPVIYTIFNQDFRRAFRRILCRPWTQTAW
Sequence of D4 dopamine receptor (P21917 whole entry): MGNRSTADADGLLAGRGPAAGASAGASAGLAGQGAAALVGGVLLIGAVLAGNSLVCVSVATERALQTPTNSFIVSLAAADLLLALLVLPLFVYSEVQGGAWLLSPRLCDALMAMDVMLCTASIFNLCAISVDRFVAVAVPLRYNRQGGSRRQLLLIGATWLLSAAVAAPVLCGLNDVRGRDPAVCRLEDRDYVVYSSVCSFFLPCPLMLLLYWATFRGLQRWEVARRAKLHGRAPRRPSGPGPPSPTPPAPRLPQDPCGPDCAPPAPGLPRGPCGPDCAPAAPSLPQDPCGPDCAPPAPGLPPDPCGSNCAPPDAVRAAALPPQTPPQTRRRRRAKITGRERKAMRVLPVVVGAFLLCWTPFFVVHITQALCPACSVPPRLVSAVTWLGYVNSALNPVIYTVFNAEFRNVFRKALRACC
Sequence of sigma-2 receptor (Q5BJF2 whole entry, species assumed): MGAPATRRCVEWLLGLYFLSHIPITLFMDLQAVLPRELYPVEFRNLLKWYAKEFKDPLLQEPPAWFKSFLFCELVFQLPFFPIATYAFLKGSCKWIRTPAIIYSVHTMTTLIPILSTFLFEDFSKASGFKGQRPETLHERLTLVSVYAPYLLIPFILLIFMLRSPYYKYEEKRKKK
Sequence of serotonin transporter (SERT) (P31645 whole entry, species assumed): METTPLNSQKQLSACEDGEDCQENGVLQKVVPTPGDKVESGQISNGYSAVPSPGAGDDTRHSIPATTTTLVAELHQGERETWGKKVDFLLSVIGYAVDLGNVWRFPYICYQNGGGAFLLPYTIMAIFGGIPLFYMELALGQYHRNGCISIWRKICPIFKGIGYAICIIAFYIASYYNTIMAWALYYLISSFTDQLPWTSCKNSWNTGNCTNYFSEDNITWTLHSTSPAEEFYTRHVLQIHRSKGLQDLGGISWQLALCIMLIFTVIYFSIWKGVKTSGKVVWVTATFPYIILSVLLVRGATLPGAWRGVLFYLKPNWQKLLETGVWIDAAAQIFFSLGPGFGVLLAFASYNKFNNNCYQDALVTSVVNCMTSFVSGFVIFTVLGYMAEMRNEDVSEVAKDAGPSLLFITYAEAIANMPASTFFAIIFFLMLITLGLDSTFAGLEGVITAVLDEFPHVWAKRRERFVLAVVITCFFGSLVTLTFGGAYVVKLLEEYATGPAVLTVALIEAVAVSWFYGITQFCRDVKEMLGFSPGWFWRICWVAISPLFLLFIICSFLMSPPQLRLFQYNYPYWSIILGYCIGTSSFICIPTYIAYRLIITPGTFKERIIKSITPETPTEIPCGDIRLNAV

Turning to `O=C(NCCCCN1CCN(c2ccccc2F)CC1)c1ccc(-c2ccsc2)cc1` [Compound 6a], at D3 dopamine receptor [1], the “efficacy in β-arrestin binding assay” value is “weak partial agonists”. Moreover, in test [2], the “L-dopa dependent AIM scores” value was “attenuate the AIM scores”. For the same molecule, the Ki on D4 dopamine receptor was more than 1500 nM; at D3 dopamine receptor [3], 0.2 nM; at α2b adrenergic receptor it was more than 100 nM; at α2a adrenergic receptor, 15.2 nM; at sigma-2 receptor, 33.1 nM; on α1b adrenergic receptor, more than 100 nM. The Ki in test [4] is more than 750 nM; at 5-HT7A receptor, 73.6 nM. Besides, at D5 dopamine receptor, the “binding affinity D5 (PDSP)” value is “low affinity binding”. Further, the “binding affinity D1 (PDSP)” value at D1 dopamine receptor was “low affinity binding”.
